Data set [1] is described as follows: in vitro. Conditions: human. The protocol: (§1) Fig 1 A, Structure of NSC130362. B, Dose response curve of NSC130362 in MIA PaCa-2 cells. Cells were pre-incubated with NSC130362 for 2 h followed by addition of ATO (5 μM) and incubation for an additional 24 h. At the end of the treatment, the ratio of dead cells was determined by a CellTiterGlo reagent.
In data set [2] the test system is pancreatic cancer MIA PaCa-2 cells. The data set can be described thus: cells. To be noted: for EC50: Homo sapiens, MIA PaCa-2, read-out: EC50, μM MIA PaCa-2; for improvement in anti-cancer activity: versus compound 4. On the procedure:
as §1

For data set [3], the system named is human primary hepatocytes. The data set can be described thus: cells. Conditions: Hepatocyte, read-out: EC50, μM Hepatocytes.
Source text: (§2) We selected hepatocytes as normal cells because hepatocytes are mediate toxicity to multiple drugs and are used as a standard to assess toxicity of drugs in vitro [28]. […] For comparison with the standard of care, doxorubicin was also included in this analysis.
Data set [4] deals with human primary hepatocytes. To be noted: for EC50: read-out: EC50, μM Hepatocytes ATO, in the presence of ATO (5 μM), SD does not exceed 10%.
Source text: as §2

Like-named read-outs stand apart in the source and are kept apart here.

The text below walks through data of PMC6433232, “Targeting mitochondria in cancer therapy could provide a basis for the selective anti-cancer activity” (PLoS ONE, 2019).

For the compound `COc1cccc2c1C(=O)c1c(O)c3c(c(O)c1C2=O)C[C@@](O)(C(=O)CO)C[C@@H]3O[C@H]1C[C@H](N)[C@H](O)[C@H](C)O1` [Doxorubicin, reference compound], the selectivity ratio in data set [1] came to 3.5. Also, the figures for the EC50 in data set [2] and in data set [3] were 0.7 µM and 10 µM, respectively. The “selective cytotoxicity index, times less” value in data set [2] (human) is recorded as “approximately 25 times”.

On to `O=C1C(Cl)=C(NCCCO)C(=O)c2ccccc21` [compound 18], for which the EC50 turned out to be 27.5 µM in data set [2] and 75.3 µM in data set [3]. Further, the “increase in toxicity to hepatocytes” value in data set [4] (versus compound 17) is “approximately 3 fold”.

Regarding `O=C1C(Cl)=C(NC(CO)(CO)CO)C(=O)c2ccccc21` [compound 20], the EC50 was over 90 µM in data set [2] and 47.8 µM in data set [3]. In data set [2] (versus compound 13), the “loss in anti-cancer activity” value is listed as “approximately 50 fold”. Further, the “loss in toxicity to hepatocytes” value in data set [4] (versus compound 13) is reported as “approximately 2 fold”.

For `COCCCNC1=C(Cl)C(=O)c2ccccc2C1=O` [compound 22], the EC50 in data set [2] was 39 µM; in data set [3], 90 µM. Further, in data set [2] (versus compound 21), the “decrease in anti-cancer activity” value turned out to be 4 fold. Also, the “increase in toxicity to hepatocytes” value in data set [4] (versus compound 4) is recorded as “approximately 3 fold”.

As for `CN(C)CCCNC1=C(Cl)C(=O)c2ccccc2C1=O` [compound 27], in data set [2], the EC50 was 0.9 µM and the “improvement in anti-cancer activity” value is 10.8 fold. In addition, the “increase in toxicity to hepatocytes” value in data set [4] (versus compound 4) is 9.2 fold. Moreover, the EC50 in data set [3] is 24.1 µM.

On to `O=C1C(Cl)=C(NCCCN(CCO)CCO)C(=O)c2ccccc21` [compound 28], for which the figures for the EC50 in data set [2] and in data set [3] were 9.2 µM and 48.5 µM, respectively. The “improvement in anti-cancer activity” value in data set [2] came to 4.6 fold. Besides, the “increase in toxicity to hepatocytes” value in data set [4] (versus compound 4) is listed as 3.0 fold.

Take `NC1=CC(=O)c2ccccc2C1=O` [compound 48, 3-amino-1,4-NQ]: the 50% effective concentration (EC50) was found to be 24.4 µM in data set [2] and 28.1 µM in data set [3]. The “increase in toxicity to hepatocytes” value in data set [4] (versus compound 1) was “approximately 3 fold”.

In the case of `CC1=CC(=O)c2ccccc2C1=O` [compound 61, 3-methyl-1,4-NQ, reference compound], the selectivity ratio in data set [1] is 10.4. The EC50 in data set [2] is 7.8 µM; in data set [4] it was 15.6 µM; in data set [3], 11.8 µM. Further, in data set [2] (versus 1,4-NQ (compound 56)), the improved anti-cancer activity amounted to 1.5 fold. For the same compound, the “times less toxic to hepatocytes” value in data set [4] was “approximately 5 times”.

Regarding `NC1=C(Br)C(=O)c2ncccc2C1=O` [compound 65], the EC50 in data set [2] came to 1.8 µM; in data set [4], 4.1 µM; in data set [3], 8.6 µM.
